≈ marks a conversion by molar mass, not a printed value.

The source of these data is ChEMBL document CHEMBL4052791, “GNE-886: A Potent and Selective Inhibitor of the Cat Eye Syndrome Chromosome Region Candidate 2 Bromodomain (CECR2)” (ACS Med Chem Lett, 2017).

In data set [1] the target is T1, Chromatin remodeling regulator CECR2 (Homo sapiens, UniProt Q9BXF3). As to the kind of experiment: Inhibition of recombinant human N-terminal His6-FLAG-tagged CECR2 expressed in Rosetta2 (DE3) pLysS cells after 60 mins by TR-FRET assay. In kind it is cell-based. For orientation: TR-FRET usually uses a lanthanide donor and a delayed reading to cut background.
In data set [2] the target is T2, Bromodomain-containing protein 4 (Homo sapiens, UniProt O60885). In words: Inhibition of recombinant human N-terminal His6-FLAG-tagged BRD4 bromodomain 1 expressed in Rosetta2 (DE3) pLysS cells after 60 mins by TR-FRET assay. In kind it is cell-based.
Data set [3] deals with T2, Bromodomain-containing protein 4. As to the kind of experiment: Inhibition of recombinant human N-terminal His6-FLAG-tagged BRD4 bromodomain 2 (unknown origin) expressed in Rosetta2 (DE3) pLysS cells after 60 mins by TR-FRET assay. In kind it is cell-based.
Data set [4] addresses T3, Bromodomain-containing protein 9 (Homo sapiens, UniProt Q9H8M2).
T3 sequence (Q9H8M2 whole entry): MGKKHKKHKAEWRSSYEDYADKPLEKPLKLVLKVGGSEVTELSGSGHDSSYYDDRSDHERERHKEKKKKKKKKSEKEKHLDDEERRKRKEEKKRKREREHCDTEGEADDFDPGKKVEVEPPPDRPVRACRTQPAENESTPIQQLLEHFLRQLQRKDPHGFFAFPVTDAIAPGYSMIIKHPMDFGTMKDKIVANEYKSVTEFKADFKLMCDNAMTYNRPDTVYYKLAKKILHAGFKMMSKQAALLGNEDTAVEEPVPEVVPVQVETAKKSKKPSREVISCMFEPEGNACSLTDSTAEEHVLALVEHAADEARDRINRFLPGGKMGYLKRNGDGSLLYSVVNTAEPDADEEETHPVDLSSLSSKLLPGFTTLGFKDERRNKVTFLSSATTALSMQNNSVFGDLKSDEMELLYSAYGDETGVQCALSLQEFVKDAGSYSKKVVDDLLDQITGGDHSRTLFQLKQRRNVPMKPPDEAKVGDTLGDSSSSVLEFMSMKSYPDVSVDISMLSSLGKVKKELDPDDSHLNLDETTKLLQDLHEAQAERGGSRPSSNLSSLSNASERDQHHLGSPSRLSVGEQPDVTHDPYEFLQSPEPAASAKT
As to the kind of experiment: Inhibition of recombinant human N-terminal His6-FLAG-tagged BRD9 (unknown origin) expressed in Rosetta2 (DE3) pLysS cells after 60 mins by TR-FRET assay. In kind it is cell-based.

The target of data set [5] is T4, Transcription initiation factor TFIID subunit 1 (Homo sapiens, UniProt P21675). As to the kind of experiment: Inhibition of recombinant human N-terminal His6-FLAG-tagged TAF1 bromodomain 2 (unknown origin) expressed in Rosetta2 (DE3) pLysS cells after 60 mins by TR-FRET assay. In kind it is cell-based.
The target of data set [6] is T1, Chromatin remodeling regulator CECR2. As to the kind of experiment: Binding affinity to ZsGreen fused-CECR2 bromodomain (M404 to H515 residues) (unknown origin) expressed in human U2OS-C433 cells co expressing (MDPKKKRKVDPKKRKVDPKKKRKV) assessed as induction of protein bromodomain localization from chromatin by measuring formation of large nuclear puncta by fluorescence based assay. In kind it is cell-based.

Data set [7] has as its target Transcription initiation factor TFIID subunit 1-like (Homo sapiens, UniProt Q8IZX4). As to the kind of experiment: Binding affinity to human DNA-tagged TAF1L bromodomain 2 (1523 to 1654 residues) expressed in bacterial expression system by BROMOscan assay.
The target in data set [8] is T5, Bromodomain-containing protein 7 (Homo sapiens, UniProt Q9NPI1).
T5 sequence (Q9NPI1 whole entry): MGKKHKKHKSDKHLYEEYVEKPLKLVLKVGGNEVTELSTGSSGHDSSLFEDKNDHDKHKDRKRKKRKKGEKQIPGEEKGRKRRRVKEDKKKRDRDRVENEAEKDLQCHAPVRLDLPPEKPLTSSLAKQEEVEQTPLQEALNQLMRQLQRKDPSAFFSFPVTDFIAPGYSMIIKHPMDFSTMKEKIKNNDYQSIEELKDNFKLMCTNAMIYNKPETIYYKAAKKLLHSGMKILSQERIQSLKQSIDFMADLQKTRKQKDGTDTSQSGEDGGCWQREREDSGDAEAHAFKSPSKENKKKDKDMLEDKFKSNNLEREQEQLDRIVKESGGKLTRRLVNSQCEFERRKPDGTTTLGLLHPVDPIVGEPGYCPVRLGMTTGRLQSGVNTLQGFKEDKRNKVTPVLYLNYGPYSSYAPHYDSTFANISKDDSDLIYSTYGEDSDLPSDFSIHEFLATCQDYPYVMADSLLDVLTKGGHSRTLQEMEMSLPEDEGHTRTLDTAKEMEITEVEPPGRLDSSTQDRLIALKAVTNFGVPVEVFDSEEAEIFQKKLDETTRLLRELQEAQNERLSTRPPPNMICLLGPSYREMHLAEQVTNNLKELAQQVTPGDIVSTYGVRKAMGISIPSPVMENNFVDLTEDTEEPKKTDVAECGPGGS
In words: Binding affinity to human DNA-tagged BRD7 (125 to 254 residues) expressed in mammalian expression system by BROMOscan assay.

Data set [9] addresses T3, Bromodomain-containing protein 9. As to the kind of experiment: Binding affinity to human DNA-tagged BRD9 isoform 1 (130 to 259 residues) expressed in bacterial expression system by BROMOscan assay.
A short description of data set [10]: Kinetic solubility of the compound. Conditions: read-out: Kinetic_solubility. In kind it is physicochemical.
For data set [11], the target named is T4, Transcription initiation factor TFIID subunit 1. As to the kind of experiment: Binding affinity to human DNA-tagged TAF1 bromodomain 2 (1521 to 1656 residues) expressed in bacterial expression system by BROMOscan assay.

T1 sequence (Q9BXF3 whole entry): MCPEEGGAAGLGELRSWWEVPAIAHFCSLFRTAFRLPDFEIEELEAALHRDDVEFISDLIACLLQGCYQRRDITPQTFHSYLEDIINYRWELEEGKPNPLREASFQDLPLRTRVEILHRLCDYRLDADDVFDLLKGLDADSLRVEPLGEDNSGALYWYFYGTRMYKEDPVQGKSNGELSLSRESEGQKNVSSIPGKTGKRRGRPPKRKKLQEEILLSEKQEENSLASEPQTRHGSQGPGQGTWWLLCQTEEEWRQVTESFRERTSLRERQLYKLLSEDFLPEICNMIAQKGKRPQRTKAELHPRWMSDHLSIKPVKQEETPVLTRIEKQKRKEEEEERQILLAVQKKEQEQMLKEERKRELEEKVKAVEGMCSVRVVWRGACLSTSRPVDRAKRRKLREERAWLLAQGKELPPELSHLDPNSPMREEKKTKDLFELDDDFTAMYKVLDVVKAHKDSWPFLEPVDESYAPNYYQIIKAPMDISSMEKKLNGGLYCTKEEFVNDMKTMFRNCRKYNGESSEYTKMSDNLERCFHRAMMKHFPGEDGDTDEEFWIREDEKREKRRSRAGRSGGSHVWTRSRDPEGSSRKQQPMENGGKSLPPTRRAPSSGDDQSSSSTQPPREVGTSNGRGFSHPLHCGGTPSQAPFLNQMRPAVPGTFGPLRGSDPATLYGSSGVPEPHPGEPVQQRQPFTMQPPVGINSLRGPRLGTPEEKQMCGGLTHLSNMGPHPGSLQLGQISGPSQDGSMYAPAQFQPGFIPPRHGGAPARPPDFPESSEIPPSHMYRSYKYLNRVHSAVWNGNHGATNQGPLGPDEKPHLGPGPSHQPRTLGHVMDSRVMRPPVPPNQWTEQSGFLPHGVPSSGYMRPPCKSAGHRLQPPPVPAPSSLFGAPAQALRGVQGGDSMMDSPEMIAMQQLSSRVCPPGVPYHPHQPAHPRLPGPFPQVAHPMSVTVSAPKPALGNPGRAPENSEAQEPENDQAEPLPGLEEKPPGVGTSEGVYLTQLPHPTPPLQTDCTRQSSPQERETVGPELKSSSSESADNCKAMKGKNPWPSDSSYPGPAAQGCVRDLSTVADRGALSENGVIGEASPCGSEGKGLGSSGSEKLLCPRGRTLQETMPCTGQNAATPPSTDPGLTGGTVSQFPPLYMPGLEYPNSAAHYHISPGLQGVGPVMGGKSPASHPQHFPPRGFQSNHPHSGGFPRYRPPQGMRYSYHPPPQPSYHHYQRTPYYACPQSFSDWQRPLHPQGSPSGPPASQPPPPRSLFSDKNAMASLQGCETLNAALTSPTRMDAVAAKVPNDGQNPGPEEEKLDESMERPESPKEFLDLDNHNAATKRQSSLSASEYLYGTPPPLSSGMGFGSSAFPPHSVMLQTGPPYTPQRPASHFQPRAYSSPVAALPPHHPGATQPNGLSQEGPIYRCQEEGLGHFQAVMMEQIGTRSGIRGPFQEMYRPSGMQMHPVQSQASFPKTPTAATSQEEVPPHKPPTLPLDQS
T4 sequence (P21675 whole entry, the tested form may be a part): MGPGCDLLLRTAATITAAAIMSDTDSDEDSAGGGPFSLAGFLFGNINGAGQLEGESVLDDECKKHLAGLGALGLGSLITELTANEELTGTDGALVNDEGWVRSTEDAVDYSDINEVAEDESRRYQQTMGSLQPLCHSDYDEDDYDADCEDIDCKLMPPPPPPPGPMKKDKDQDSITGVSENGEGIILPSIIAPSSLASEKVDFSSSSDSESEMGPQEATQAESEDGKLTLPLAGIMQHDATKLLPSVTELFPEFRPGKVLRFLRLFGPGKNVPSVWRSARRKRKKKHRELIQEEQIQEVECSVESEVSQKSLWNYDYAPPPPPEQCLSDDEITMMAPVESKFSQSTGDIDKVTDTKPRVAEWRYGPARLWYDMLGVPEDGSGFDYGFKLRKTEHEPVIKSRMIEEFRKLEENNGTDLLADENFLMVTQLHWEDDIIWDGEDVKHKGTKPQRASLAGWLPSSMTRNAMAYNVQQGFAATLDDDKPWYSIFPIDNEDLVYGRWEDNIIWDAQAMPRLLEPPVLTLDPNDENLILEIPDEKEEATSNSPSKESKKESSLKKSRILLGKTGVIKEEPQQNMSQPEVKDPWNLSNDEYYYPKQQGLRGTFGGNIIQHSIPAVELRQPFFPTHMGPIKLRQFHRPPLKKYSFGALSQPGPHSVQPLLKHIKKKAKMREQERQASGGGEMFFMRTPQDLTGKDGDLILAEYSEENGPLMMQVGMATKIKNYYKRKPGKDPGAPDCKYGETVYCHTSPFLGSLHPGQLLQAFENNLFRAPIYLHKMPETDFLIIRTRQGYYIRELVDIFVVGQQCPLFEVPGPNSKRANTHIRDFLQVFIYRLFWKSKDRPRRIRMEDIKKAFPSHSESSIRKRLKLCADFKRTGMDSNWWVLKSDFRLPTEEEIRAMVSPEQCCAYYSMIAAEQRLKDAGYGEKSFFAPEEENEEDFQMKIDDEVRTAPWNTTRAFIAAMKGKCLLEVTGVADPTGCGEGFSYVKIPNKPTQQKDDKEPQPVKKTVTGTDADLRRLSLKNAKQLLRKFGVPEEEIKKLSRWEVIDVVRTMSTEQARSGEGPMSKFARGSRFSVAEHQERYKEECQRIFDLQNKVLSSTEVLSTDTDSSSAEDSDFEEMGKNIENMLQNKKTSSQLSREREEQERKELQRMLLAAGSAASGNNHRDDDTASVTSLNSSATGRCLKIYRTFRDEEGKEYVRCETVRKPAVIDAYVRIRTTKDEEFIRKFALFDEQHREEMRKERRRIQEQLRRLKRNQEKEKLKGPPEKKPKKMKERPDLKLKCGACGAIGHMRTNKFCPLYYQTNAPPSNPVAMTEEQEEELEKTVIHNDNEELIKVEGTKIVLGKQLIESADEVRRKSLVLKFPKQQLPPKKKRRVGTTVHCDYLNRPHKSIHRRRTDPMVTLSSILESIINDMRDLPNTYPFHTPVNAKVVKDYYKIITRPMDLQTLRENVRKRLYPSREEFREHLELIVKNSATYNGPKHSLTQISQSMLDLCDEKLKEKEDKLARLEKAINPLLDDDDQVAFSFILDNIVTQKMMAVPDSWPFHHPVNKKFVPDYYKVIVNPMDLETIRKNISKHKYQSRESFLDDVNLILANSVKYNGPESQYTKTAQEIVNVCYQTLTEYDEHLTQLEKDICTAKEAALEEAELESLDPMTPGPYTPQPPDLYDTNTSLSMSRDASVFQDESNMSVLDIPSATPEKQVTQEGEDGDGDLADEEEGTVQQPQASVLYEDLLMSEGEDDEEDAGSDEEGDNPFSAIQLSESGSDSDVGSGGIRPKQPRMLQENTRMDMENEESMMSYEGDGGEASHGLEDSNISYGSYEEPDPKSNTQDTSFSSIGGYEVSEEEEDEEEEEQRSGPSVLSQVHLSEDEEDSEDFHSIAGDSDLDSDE

Turning to `CN1CCC(N(C)C(=O)c2cn(C)c(=O)c3[nH]ccc23)CC1`, the 50% inhibitory concentration (IC50) in data set [1] is 780 nM; in data set [2], more than 20 µM; in data set [3] it was 17.2 µM; in data set [4], more than 20 µM; in data set [5] it was 6100 nM.

Consider `C=CCn1cc(C(=O)N(C)C2CCN(c3cc(-c4ccccc4F)ncn3)CC2)c2cc[nH]c2c1=O`, for which the IC50 was 44 nM in data set [1], more than 20 µM in [2], 1.5 µM in data set [4] and 2500 nM in data set [5].

On to `C=CCn1cc(C(=O)N(C)C2CCN(c3cc(-c4cccc(OC)c4)ncn3)CC2)c2cc[nH]c2c1=O`, for which the EC50 in data set [6] was determined as 370 nM. For the same compound, the Kd in data set [7] is 2400 nM; in [8], 1100 nM; in [9] it was 2000 nM; in data set [11], 620 nM. For the same compound, the IC50 in [1] was 16 nM; in data set [2] it was more than 20 µM; in [4], 1.6 µM; in [5], 1400 nM. Further, the solubility kinetic in [10] amounted to 122 µM (≈ 60.8 µg/mL).

Turning to `C=CCn1cc(C(=O)N(C)C2CCN(c3cc(C4CC4)nc(C)n3)CC2)c2cc[nH]c2c1=O`, the IC50 in [1] was 52 nM; in data set [2] it was more than 20 µM; in data set [4] it was 3.5 µM; in data set [5], 3300 nM.

In the case of `C=CCn1cc(C(=O)N(C)C2CCN(c3cc(C4CC4)ncn3)CC2)c2cc[nH]c2c1=O`, the IC50 in data set [1] is 83 nM; in [2], more than 20 µM; in data set [4] it was 6.1 µM; in data set [5], 1800 nM.

As for `C=CCn1cc(C(=O)N(C)C2CCN([C@@H](C)c3ccccc3)CC2)c2cc(C)[nH]c2c1=O`, the IC50 in data set [1] is 190 nM; in [2], more than 20 µM; in [3], more than 20 µM; in data set [4], 4.4 µM; in data set [5], 11900 nM.

As for `C=CCn1cc(C(=O)N(C)C2CCN([C@H](C)c3ccccc3)CC2)c2cc(C)[nH]c2c1=O`, the IC50 is 200 nM in data set [1]; more than 20 µM in [2]; more than 20 µM in [3]; 3.5 µM in [4]; 16500 nM in [5].

As to `C=CCn1cc(C(=O)N(C)C2CCN(c3cc(C(F)(F)F)ncn3)CC2)c2cc[nH]c2c1=O`, the IC50 in data set [1] is 200 nM; in data set [2] it was more than 20 µM; in data set [4], 11.4 µM; in data set [5] it was 3400 nM.

Regarding `C=CCn1cc(C(=O)N(C)C2CCN(c3cc(C)nc(C)n3)CC2)c2cc[nH]c2c1=O`, the IC50 in data set [1] is 93 nM; in [2], more than 20 µM; in [4], 7.6 µM; in data set [5], 5100 nM.

For `C=CCn1cc(C(=O)N(C)C2CCN(c3cc(-c4ccccc4C)ncn3)CC2)c2cc[nH]c2c1=O`, the concentration for half-maximal inhibition (IC50) in data set [1] was 46 nM; in data set [2], more than 20 µM; in data set [4] it was 1.7 µM; in [5] it was 2400 nM.

Regarding `CC(c1ccccc1)N1CCC(N(C)C(=O)c2cn(C)c(=O)c3[nH]ccc23)CC1` (racemic), the IC50 is 330 nM in data set [1]; more than 20 µM in data set [2]; 6.1 µM in data set [3]; 11 µM in data set [4]; 3600 nM in [5].

In the case of `CN1CCC(NC(=O)c2cn(C)c(=O)c3[nH]ccc23)CC1`, the IC50 was 1100 nM in data set [1]; more than 20 µM in [2]; more than 20 µM in [3]; 2.4 µM in [4]; 130 nM in data set [5].

In the case of `C=CCn1cc(C(=O)N(C)C2CCN(c3cc(C(C)(C)C)ncn3)CC2)c2cc[nH]c2c1=O`, the IC50 was 55 nM in [1], more than 20 µM in [2], 5.7 µM in data set [4] and 2800 nM in [5].

As to `C=CCn1cc(C(=O)N(C)C2CCN(C(C)c3ccccc3)CC2)c2cc[nH]c2c1=O` (racemic), the IC50 in data set [1] is 500 nM; in data set [2], more than 20 µM; in [3] it was more than 20 µM; in data set [4] it was more than 20 µM; in data set [5], 16100 nM.

Regarding `C=CCn1cc(C(=O)N(C)C2CCN(c3cc(-n4cccn4)ncn3)CC2)c2cc[nH]c2c1=O`, the IC50 in data set [1] was 59 nM; in [2], more than 20 µM; in data set [4], 6.9 µM; in data set [5] it was 3400 nM.

Consider `C=CCn1cc(C(=O)N(C)C2CCN(c3cc(OC)nc(C)n3)CC2)c2cc[nH]c2c1=O`, for which the IC50 in data set [1] is 71 nM; in data set [2], more than 20 µM; in data set [4], 5.8 µM; in [5], 2700 nM.

With `C=CCn1cc(C(=O)N(C)C2CCN(c3cc(-c4ccco4)ncn3)CC2)c2cc[nH]c2c1=O`, the 50% inhibitory concentration (IC50) in data set [1] is 45 nM; in [2], more than 20 µM; in data set [4] it was 3.3 µM; in [5] it was 2500 nM.

With `C=CCn1cc(C(=O)N(C)C2CCN(c3cc(OC)ncn3)CC2)c2cc[nH]c2c1=O`, the IC50 in data set [1] was 130 nM; in [2] it was more than 20 µM; in [4] it was 8.5 µM; in [5], 2800 nM.

Take `C=CCn1cc(C(=O)N(C)C2CCN(c3cc(-c4ccccc4OC)ncn3)CC2)c2cc[nH]c2c1=O`: the IC50 in [1] was 45 nM; in data set [2] it was more than 20 µM; in data set [4], 2.6 µM; in [5], 2600 nM.

On to `CC(C)N1CCC(N(C)C(=O)c2cn(C)c(=O)c3[nH]ccc23)CC1`, for which the IC50 in [1] was 500 nM; in data set [2], more than 20 µM; in data set [3], 19.2 µM; in data set [4], 17.8 µM; in [5] it was 8400 nM.

On to `C=CCn1cc(C(=O)N(C)C2CCN(c3ccncn3)CC2)c2cc[nH]c2c1=O`, for which the IC50 is 240 nM in [1], more than 20 µM in data set [2], 5 µM in data set [4] and 2100 nM in [5].

What is called IC50 is the concentration at which inhibition is half-maximal. Broadly, the EC50 is the midpoint of the concentration-response curve. What is called Kd is the concentration at which binding is half-saturated. A high value points to lower affinity.
